Values quoted from earlier work as cited in patent publication US5013557A, “Taste masking compositions comprising spray dried microcapsules containing sucralfate and methods for preparing same” (Warner-Lambert Company, priority 1989, dated 1991).

Tests used:
[1] = pH values below about 3.5
[2] = test system: ulcerated mucosa
[3] = test system: pepsin; settings: gel-like mass at ulcer site
[4] = sulfated disaccharide
[5] = test system: peptic ulcers; settings: in vivo
[6] = test system: mucosa
[7] = test system: EGF; settings: in vivo

## alpha-D-glucopyranoside, beta-D-fructofuranosyl-, octakis-(hydrogen sulfate), aluminum complex [sucralfate]
[1]
  Coagulation / gel formation: coagulates to form a gel-like mass
[2]
  Affinity for ulcerated mucosa versus non-ulcerated mucosa: greater affinity for ulcerated mucosa than for non-ulcerated mucosa
[3]
  Effect of protein barrier on bile salts and pepsin: adsorbs bile salts and inhibits the potential ulcerogenic properties of pepsin
[4]
  Absorption from the gastrointestinal tract: not absorbed from the gastrointestinal tract
[5]
  Healing of peptic ulcers: accelerates the healing of peptic ulcers
Across the sucralfate protein barrier
  Effect of barrier on back diffusion of gastric acid: blocks back diffusion of gastric acid
Protein barrier bound to ulcer site
  Effect of barrier on diffusion of hydrogen ions: blocks diffusion of hydrogen ions
[6]
  Morphological and functional changes in the mucosa: mucus release, changes in ion transport and increased release and synthesis of prostaglandins
[7]
  EGF remaining in the stomach: enable EGF to remain in the stomach at a high concentration
